Measured values from ChEMBL document CHEMBL3822377, “Locking PDK1 in DFG-out conformation through 2-oxo-indole containing molecules: Another tools to fight glioblastoma” (Eur J Med Chem, 2016).

Biological target: 3-phosphoinositide-dependent protein kinase 1 (Homo sapiens, UniProt O15530)
Test: Inhibition of PDK1 (unknown origin) using AKT(Thr-308)-tide substrate
Settings: not given

AC50 [nM]	SMILES
2000	O=C(CC(c1ccccc1)C(C(=O)O)C(=O)O)c1ccc(C(F)(F)F)cc1 (stereo not given)

System: not listed separately
Test: Antiproliferative activity against human U87MG cells after 72 hrs
Type: functional, cell-based, U-87MG ATCC
Settings: U-87 MG

SMILES	IC50 [nM]
O=C(N[C@@H](COc1ccc2[nH]c(=O)[nH]c2c1)c1ccccc1)c1cccn(Cc2ccc(F)c(F)c2)c1=O	> 30000

Biological target: T1, 3-phosphoinositide-dependent protein kinase 1 (Homo sapiens) (UniProt O15530)
T1 sequence (whole entry): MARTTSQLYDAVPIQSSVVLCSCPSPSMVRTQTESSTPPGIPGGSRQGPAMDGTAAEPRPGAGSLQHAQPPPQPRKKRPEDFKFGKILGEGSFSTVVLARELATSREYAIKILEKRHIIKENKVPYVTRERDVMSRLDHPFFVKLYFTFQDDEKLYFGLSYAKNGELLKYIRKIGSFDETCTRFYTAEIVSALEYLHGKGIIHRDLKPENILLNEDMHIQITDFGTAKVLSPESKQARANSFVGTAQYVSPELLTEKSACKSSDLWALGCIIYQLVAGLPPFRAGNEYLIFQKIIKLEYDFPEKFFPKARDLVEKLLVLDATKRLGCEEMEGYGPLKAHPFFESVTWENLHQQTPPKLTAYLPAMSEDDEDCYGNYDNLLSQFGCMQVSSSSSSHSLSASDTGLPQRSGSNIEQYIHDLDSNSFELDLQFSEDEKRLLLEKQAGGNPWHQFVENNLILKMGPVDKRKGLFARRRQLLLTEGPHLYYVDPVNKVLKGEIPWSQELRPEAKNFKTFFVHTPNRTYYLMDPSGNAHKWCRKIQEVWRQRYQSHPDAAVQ
Test: Inhibition of PDK1 (unknown origin) at 10 uM by FRET-based Z-lyte assay
Settings: not given

SMILES	inhibition [%]
O=C1Nc2ccc(NC(=O)c3cccn(Cc4ccc(F)c(F)c4)c3=O)cc2/C1=C/c1cnc[nH]1	64
O=C1Nc2ccc(NC(=O)[C@H](NC(=O)c3cccn(Cc4ccc(F)c(F)c4)c3=O)c3ccccc3)cc2/C1=C/c1ncc[nH]1	74
O=C1Cc2cc(NC(=O)c3cccn(Cc4ccc(F)c(F)c4)c3=O)ccc2N1	< 10
O=C(CNC(=O)c1cccn(Cc2ccc(F)c(F)c2)c1=O)Nc1ccc2c(c1)/C(=C/c1cccs1)C(=O)N2	19
O=C1Nc2ccc(NC(=O)[C@H](NC(=O)c3cccn(Cc4ccc(F)c(F)c4)c3=O)c3ccccc3)cc2/C1=C/c1cccs1	< 10
O=C1Cc2cc(NC(=O)[C@H](NC(=O)c3cccn(Cc4ccc(F)c(F)c4)c3=O)c3ccccc3)ccc2N1	< 10
O=C(CNC(=O)c1cccn(Cc2ccc(F)c(F)c2)c1=O)Nc1ccc2c(c1)/C(=C\c1ccc(F)cc1)C(=O)N2	< 10
O=C1Nc2ccc(NC(=O)[C@H](NC(=O)c3cccn(Cc4ccc(F)c(F)c4)c3=O)c3ccccc3)cc2/C1=C\c1ccc(F)cc1	< 10
O=C(CNC(=O)c1cccn(Cc2ccc(F)c(F)c2)c1=O)Nc1ccc2c(c1)CC(=O)N2	57
O=C1Nc2ccc(NC(=O)c3cccn(Cc4ccc(F)c(F)c4)c3=O)cc2/C1=C\c1ccc(F)cc1	< 10
Cn1ccnc1/C=C1/C(=O)Nc2ccc(NC(=O)c3cccn(Cc4ccc(F)c(F)c4)c3=O)cc21	< 10
O=C1Nc2ccc(NC(=O)c3cccn(Cc4ccc(F)c(F)c4)c3=O)cc2/C1=C/c1cccs1	< 10
O=C1Nc2ccc(NC(=O)[C@H](NC(=O)c3cccn(Cc4ccc(F)c(F)c4)c3=O)c3ccccc3)cc2/C1=C/c1cnc[nH]1	95
